Test results taken from paper PMC6397271 (Scientific Reports, 2019).
In brackets after ≈: the same amount, converted by molar mass.

Columns and labels:
S.aureus MRSA N315 = test: microbe, parasite or virus in culture; type: cell-based, Staphylococcus aureus; details: TP10 alone
Method: (§1) To find out MICA(with B) and MICB(with A) a checkerboard assay was carried out in 96-well microtiter plates (each test was performed in triplicates). […] Each well in a 96-well plate was inoculated with 100 µL of bacterial inoculum of 1 × 10^5 CFU/mL. For this purpose only bacterial strains of MRSA (N315, 12673 and 6347) were used. Next, the plates were incubated at 37 °C for 24 h.
(§2) FIC index (FICI) is the sum of FICA and FICB. The interpretation of the calculated FICIs is in accordance to the following principle: FICI ≤ 0.5 synergy; FICI > 0.5 and ≤4 indifference (no interaction); FICI > 4, antagonism.

[1] = tested on: S.aureus MRSA hetero-VISA 6347; test: microbe, parasite or virus in culture; type: cell-based, Staphylococcus aureus; details: TP10 alone
Method: as §1, §2

S.aureus MRSA 12673 = test: microbe, parasite or virus in culture; type: cell-based, Staphylococcus aureus; details: TP10 alone
Method: as §1, §2

[2] = tested on: S. aureus MRSA hetero-VISA 6347; test: microbe, parasite or virus in culture; type: cell-based, Staphylococcus aureus; details: microbroth dilution, 96-well, resazurin, 37 °C, 24 h; mean ± SD, at least three independent experiments in triplicates
Excerpt: (§3) Three bacterial strains of MRSA (N315, 12673, 6347) and two of Enterococcus spp. (E. faecium, E. faecalis) were used. With respect to MRSA, N315 represented a reference Van-susceptible strain (GenBank GCA_00000645.1) isolated from a patient while 12673 (Van-intermediately susceptible) and 6347 (a h-VISA which appears at frequency of <10^−5 to 10^−6 is composed of two subpopulations of bacteria: one susceptible and one intermediately resistant)[38] were clinical strains obtained from patients of The Clinical University Centre of Gdańsk (UCK). […] The clinical strain isolates originated from the collection of the Department of Pharmaceutical Technology and Biochemistry, Faculty of Chemistry, Gdańsk University of Technology.
(§4) The strains were grown in Mueller-Hinton broth (MH cation-adjusted, Becton Dickinson) or Brain Heart Infusion broth (BHI, Becton Dickinson), respectively. The cultivation was carried out in an aerobic atmosphere at 37 °C for 24 hours and, afterwards, the bacterial cultures were diluted in geometric progression with a proper broth. Next, 100 µl of each dilution was inoculated in an agar plate and incubated at 37 °C for 24 h. The next procedures included determination of Colony Forming Units (CFU)/ml and minimal inhibitory concentration (MIC) of the compounds in question. The latter procedure was carried out according to the microbroth dilution technique using 96-well plates. The MICs were evaluated by using the metabolic assay based on the resazurin dye. The assay was performed in triplicates.

S. aureus MRSA 12673 = test: microbe, parasite or virus in culture; type: cell-based, Staphylococcus aureus; details: microbroth dilution, 96-well, resazurin, 37 °C, 24 h; mean ± SD, at least three independent experiments in triplicates
Excerpt: as §3, §4

S. aureus MRSA N315 = test: microbe, parasite or virus in culture; type: cell-based, Staphylococcus aureus; details: microbroth dilution, 96-well, resazurin, 37 °C, 24 h; mean ± SD, at least three independent experiments in triplicates
Excerpt: as §3, §4

[3] = tested on: Enterococcus faecium 3934825; test: microbe, parasite or virus in culture; type: cell-based; details: microbroth dilution, 96-well, resazurin, 37 °C, 24 h; mean ± SD, at least three independent experiments in triplicates
Excerpt: as §3, §4

[4] = tested on: Enterococcus faecalis 3937158; test: microbe, parasite or virus in culture; type: cell-based; details: microbroth dilution, 96-well, resazurin, 37 °C, 24 h; mean ± SD, at least three independent experiments in triplicates
Excerpt: as §3, §4

[5] = Brain concentration by LC/MS after iv administration; type: in vivo, BALB/c male mice; details: iv, 2 h, LC/MS of brain homogenate
Method: In vivo experiments were performed on BALB/c male mice weighing between 20 and 30 g (the mouse model is widely used for estimation of drug BBB penetration). The animals (obtained from TAZD-CBU) were kept in a 12-hour day and night cycle at room temperature (20–22 °C), humidity 55–56% and fed with a standard diet and water ad libitum for at least 1 week before the experiment. Body temperature and weight were recorded on a regular daily schedule. It is confirmed that all procedures were carried out according to the guidelines outlined by the European Community Council Directive 2010/63/EEC, and they were approved by the local Ethical Committee Resolution 26/2014 (Bydgoszcz, Poland).
The experiments in this section also involved the mouse model described above. […] Similarly to what was stated previously, the mice were sacrificed 2 hours after the administration of the compounds. Their brains were removed immediately from the cranium and weighed. Next, they were homogenized mechanically in the ice and frozen at −80 °C.
Each homogenized mouse brain was centrifuged at 15 000 × g for 10 min. The supernatant was diluted with deionised water (Millipore), filtered (PTFE 0.22 μm filter) and analyzed by UHPLC-ESI/MS with the use of Shimadzu Nexera X2 UHPCL chromatograph and Shimadzu LCMS-2020 mass detector. […]

[6] = tested on: intracellular MRSA 12673 strain in HEK293 cells; test: Intracellular antimicrobial (infection) assay; type: cell-based, Staphylococcus aureus; details: MRSA-infected HEK293 cells, 25 µM, 24 h
Method: HEK293 (human embryonic kidney) cells were purchased form Cell Line Services (Germany). The cells were cultured in Dulbecco’s Modified Eagle’s (DMEM) medium with 4.5 g/l glucose (Sigma-Aldrich, Germany), supplemented with 10% fetal bovine serum (FBS, Sigma-Aldrich, Germany) and 1% PEN/STREP (Sigma-Aldrich, Germany). Cells were maintained in a 5% CO2 incubator at 37 °C. The original lines were checked for the presence of mycoplasma.
HEK293 cells were seeded at a density of 1.5 × 10^5 cells/well in 24-well plates in an antibiotic-free medium (DMEM + 10% FBS) and were allowed to adhere overnight. Next, the medium was removed and overnight culture of S. aureus strain (12673) suspended in DMEM + 1% FBS (invasive medium) at a ratio of bacteria/cells 25:1 was added. To enable bacterial invasion, the cells were incubated with bacterial suspensions (37 °C, 5% CO2) for 2 h.
After this period of time extracellular bacteria were eliminated by a 30 min incubation with 20 U/ml lysostaphin. […] The lysis of human cells was carried out with 0.2% Trition-X-100 (Sigma-Aldrich, Germany). The obtained cell lysates were serially diluted in PBS and plated on agar plates and CFU/ml was determined.
The results are presented as the percentage of S. aureus intracellular survival after treatment in comparison to that of non-treated cells (control). The assay was performed in triplicates.

Which “MIC TP10 (B), MICB” value (S.aureus MRSA N315) does the source give for `CC[C@H](C)[C@H](NC(=O)[C@H](CCCCN)NC(=O)[C@H](CCCCN)NC(=O)[C@H](C)NC(=O)[C@H](CC(C)C)NC(=O)[C@H](C)NC(=O)[C@H](C)NC(=O)[C@H](CC(C)C)NC(=O)[C@H](C)NC(=O)[C@H](CCCCN)NC(=O)[C@H](CC(C)C)NC(=O)[C@H](CC(N)=O)NC(=O)[C@@H](NC(=O)[C@H](CCCCN)NC(=O)CNC(=O)[C@H](CC(C)C)NC(=O)[C@H](CC(C)C)NC(=O)[C@H](Cc1ccc(O)cc1)NC(=O)CNC(=O)[C@H](C)N)[C@@H](C)CC)C(=O)N[C@@H](CC(C)C)C(N)=O` [TP10, transportan 10, reference compound] here?
The value was 6.3 µM.

What about the “MIC TP10 (B), MICB” value [1] of the same compound?
Its value is 12.5 µM.

What about the “MIC TP10 (B), MICB” value (S.aureus MRSA 12673) of the same compound?
The value was 6.3 µM.

What about the “MIC” value [2] of the same compound?
The value was 12.5 ± 3.2 µM (≈ 27.3 µg/mL).

What about the “MIC” value (S. aureus MRSA 12673) of the same compound?
The value was 6.3 ± 1.6 µM (≈ 13.7 µg/mL).

What about the “MIC” value (S. aureus MRSA N315) of the same compound?
The value was 6.3 ± 1.3 µM (≈ 13.7 µg/mL).

And the “MIC” value [3]?
Its value is 12.5 ± 3.4 µM (≈ 27.3 µg/mL).

And the “MIC” value [4]?
The value was 12.5 ± 2.2 µM (≈ 27.3 µg/mL).

What about the “access to the brain / BBB penetration (in words)” value [5] of the same compound?
The value was “did not gain access to the brain”.

What about the “intracellular MRSA killed (bacterial killing rate)” value [6] of the same compound?
The value was 26%.
